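Protocol summary: plate cells (96-well), add compound at 5 concentrations, incubate 48 h, interpolate endpoints linearly. GI50 = concentration required for 50% inhibition of growth.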 Active and inactive are the calls of the source. Cut-off read from the data, not from the text of the source: active = GI50 up to about 1.1 µM and inactive = higher.
Key:
Test in all cases: inhibition of tumour cell growth, NCI panel, 48 h
UACC-62 = system: UACC-62
NCI-H460 = system: NCI-H460
SR = system: SR
MDA-N = system: MDA-N
IGROV-1 = system: IGROV-1
SK-OV-3 = system: SK-OV-3
SF-295 = system: SF-295
NCI-H23 = system: NCI-H23
OVCAR-5 = system: OVCAR-5
EKVX = system: EKVX
NCI-H522 = system: NCI-H522
TK-10 = system: TK-10
HCT-116 = system: HCT-116
OVCAR-4 = system: OVCAR-4
NCI-H226 = system: NCI-H226
CCRF-CEM = system: CCRF-CEM
SK-MEL-28 = system: SK-MEL-28
KM12 = system: KM12
UACC-257 = system: UACC-257
LOX IMVI = system: LOX IMVI

Measured: GI50

O=[N+]([O-])c1ccc(Cl)cc1-n1nc(-c2ccccc2)cc1-c1ccccc1
inactive: UACC-62 > 100 µM | NCI-H460 > 100 µM | SR > 100 µM | MDA-N > 100 µM | IGROV-1 > 100 µM | SK-OV-3 > 100 µM | SF-295 > 100 µM | NCI-H23 > 100 µM | OVCAR-5 > 100 µM | EKVX > 100 µM | NCI-H522 > 100 µM | TK-10 > 100 µM | HCT-116 99.8 µM | OVCAR-4 > 100 µM | NCI-H226 > 100 µM | CCRF-CEM > 100 µM | SK-MEL-28 > 100 µM | KM12 > 100 µM | UACC-257 > 100 µM

Cc1cc2c(cc1Cl)SC(NNc1ccc([N+](=O)[O-])cc1)=NS2(=O)=O
inactive: UACC-62 > 10 µM | NCI-H460 > 10 µM | MDA-N > 10 µM | LOX IMVI > 10 µM | IGROV-1 > 10 µM | SK-OV-3 > 10 µM | SF-295 > 10 µM | NCI-H23 > 10 µM | OVCAR-5 > 10 µM | EKVX > 10 µM | NCI-H522 > 10 µM | TK-10 > 10 µM | HCT-116 > 10 µM | OVCAR-4 > 10 µM | NCI-H226 > 10 µM | CCRF-CEM > 10 µM | SK-MEL-28 > 10 µM | KM12 > 10 µM | UACC-257 > 10 µM

COC(NC(N)=O)C(=O)O (configuration not stated)
inactive: UACC-62 > 100 µM | NCI-H460 > 100 µM | SR > 100 µM | MDA-N > 100 µM | IGROV-1 > 100 µM | SK-OV-3 > 100 µM | SF-295 > 100 µM | NCI-H23 > 100 µM | OVCAR-5 > 100 µM | EKVX > 100 µM | NCI-H522 > 100 µM | TK-10 > 100 µM | HCT-116 > 100 µM | OVCAR-4 > 100 µM | NCI-H226 > 100 µM | CCRF-CEM 11 µM | SK-MEL-28 > 100 µM | KM12 > 100 µM | UACC-257 > 100 µM

Clc1cc2nnn(C3CCCO3)c2cc1Cl (configuration not stated)
inactive: UACC-62 > 100 µM | NCI-H460 > 100 µM | SR 45.8 µM | MDA-N > 100 µM | IGROV-1 > 100 µM | SK-OV-3 > 100 µM | SF-295 > 100 µM | NCI-H23 60.1 µM | OVCAR-5 > 100 µM | EKVX 66.1 µM | NCI-H522 > 100 µM | TK-10 > 100 µM | HCT-116 > 100 µM | NCI-H226 > 100 µM | CCRF-CEM > 100 µM | UACC-257 > 100 µM

Nc1nc2c(c(=O)[nH]1)C(c1ccccc1)CC(=O)N2 (configuration not stated)
inactive: UACC-62 > 100 µM | NCI-H460 > 100 µM | SR > 100 µM | MDA-N > 100 µM | LOX IMVI > 100 µM | IGROV-1 > 100 µM | SK-OV-3 > 100 µM | SF-295 > 100 µM | NCI-H23 > 100 µM | OVCAR-5 > 100 µM | EKVX > 100 µM | TK-10 > 100 µM | HCT-116 > 100 µM | OVCAR-4 > 100 µM | NCI-H226 > 100 µM | SK-MEL-28 > 100 µM | KM12 > 100 µM | UACC-257 > 100 µM

Cc1c(NC(=O)CCCl)c(=O)oc2c(C)c3occc(=O)c3cc12
inactive: NCI-H460 51.2 µM | SR 80.4 µM | MDA-N 47.9 µM | IGROV-1 97.5 µM | SK-OV-3 86.9 µM | SF-295 33 µM | NCI-H23 94.4 µM | OVCAR-5 > 100 µM | EKVX > 100 µM | TK-10 49.2 µM | HCT-116 92.7 µM | OVCAR-4 > 100 µM | CCRF-CEM 30.9 µM | SK-MEL-28 53 µM | KM12 > 100 µM | UACC-257 60.1 µM

Cc1ccc(S(=O)(=O)NC2C(=O)c3ccccc3C(=O)C2n2cnc3ccccc32)cc1 (configuration not stated)
inactive: UACC-62 28.3 µM | NCI-H460 19.5 µM | SR 34.4 µM | MDA-N 19.4 µM | LOX IMVI 31.8 µM | IGROV-1 16.8 µM | SK-OV-3 66.5 µM | SF-295 37.8 µM | NCI-H23 23.9 µM | OVCAR-5 > 100 µM | EKVX 34.3 µM | TK-10 17.7 µM | HCT-116 27.4 µM | OVCAR-4 2.19 µM | NCI-H226 42.8 µM | CCRF-CEM 53.1 µM | SK-MEL-28 29.3 µM | KM12 9.4 µM | UACC-257 28.9 µM

CC(CC(C#N)(c1ccccc1)c1ccccc1)N1CCCCC1 (configuration not stated)
inactive: UACC-62 21.3 µM | NCI-H460 16 µM | MDA-N 19.1 µM | LOX IMVI 17.3 µM | IGROV-1 43.2 µM | SK-OV-3 65.6 µM | SF-295 20 µM | NCI-H23 37.8 µM | OVCAR-5 33.1 µM | EKVX 23.8 µM | NCI-H522 18.6 µM | TK-10 20.6 µM | HCT-116 19.9 µM | OVCAR-4 39.6 µM | NCI-H226 20.7 µM | CCRF-CEM 23.6 µM | SK-MEL-28 23.1 µM | KM12 18.1 µM | UACC-257 14.6 µM

NCCCNOCCCN
inactive: UACC-62 > 100 µM | NCI-H460 > 100 µM | SR 2.26 µM | MDA-N > 100 µM | SK-OV-3 > 100 µM | SF-295 > 100 µM | NCI-H23 > 100 µM | OVCAR-5 > 100 µM | NCI-H522 > 100 µM | TK-10 > 100 µM | HCT-116 > 100 µM | OVCAR-4 > 100 µM | SK-MEL-28 > 100 µM | KM12 > 100 µM

CC1=C(C)C1[N+](=O)[O-]
inactive: UACC-62 > 100 µM | NCI-H460 > 100 µM | MDA-N > 100 µM | LOX IMVI > 100 µM | IGROV-1 > 100 µM | SK-OV-3 > 100 µM | SF-295 > 100 µM | NCI-H23 > 100 µM | OVCAR-5 > 100 µM | EKVX > 100 µM | NCI-H522 > 100 µM | TK-10 > 100 µM | HCT-116 > 100 µM | OVCAR-4 > 100 µM | NCI-H226 > 100 µM | CCRF-CEM > 100 µM | SK-MEL-28 > 100 µM | KM12 > 100 µM | UACC-257 > 100 µM

[O-][N+]1=NC(c2ccccc2)=C1c1ccccc1
inactive: UACC-62 > 50 µM | NCI-H460 > 50 µM | MDA-N > 50 µM | LOX IMVI > 50 µM | IGROV-1 > 50 µM | SK-OV-3 > 50 µM | SF-295 > 50 µM | NCI-H23 > 50 µM | OVCAR-5 > 50 µM | EKVX > 50 µM | NCI-H522 > 50 µM | TK-10 > 50 µM | HCT-116 > 50 µM | OVCAR-4 > 50 µM | NCI-H226 > 50 µM | CCRF-CEM > 50 µM | SK-MEL-28 > 50 µM | KM12 > 50 µM | UACC-257 > 50 µM

Reference: ChEMBL document CHEMBL1201862, “PubChem BioAssay data set” (2004)
